The supplement of paper PMC10307832

Compound: C[C@@H](Oc1cc(-c2cnn(C3CCNCC3)c2)cnc1N)c1c(Cl)ccc(F)c1Cl [Crizotinib] + CC(=O)Nc1cccc(-n2c(=O)n(C3CC3)c(=O)c3c(Nc4ccc(I)cc4F)n(C)c(=O)c(C)c32)c1 [Trametinib] (partner 0.02 µM)
Test: relative viability (nuclei count vs DMSO), 5 days (fraction); higher = more cells survive
Conditions: first compound 0.01 µM
Procedure, shortened: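 Each reported value is a median over duplicate plates. It expresses relative viability: treated-well nuclei count divided by vehicle-well nuclei count. Lung cancer cell lines in 1536-well plates were dosed by pin tool a day after seeding, alone with one drug or with a fixed anchor-drug dose plus five library-drug doses (not always all listed) in √10 steps, and nuclei were counted after 5 days.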

Cell Line | relative viability
201T | 0.678
A-427 | 0.717
CAL-12T | 0.268
COR-L23 | 0.567
COR-L 105 | 0.426
ChaGo-K-1 | 0.867
EKVX | 0.342
EMC-BAC-2 | 0.865
EPLC-272H | 0.277
H3255 | 0.557
HARA | 0.646
HCC-15 | 0.396
HCC-44 | 0.933
HCC-78 | 0.631
HCC-366 | 0.342
HCC-827 | 0.462
HOP-62 | 0.353

Cell Line | relative viability
LC-2-ad | 0.899
LCLC-97TM1 | 0.189
LCLC-103H | 0.644
LK-2 | 0.858
LOU-NH91 | 0.773
LU99A | 0.587
LXF-289 | 0.666
NCI-H23 | 0.341
NCI-H358 | 0.108
NCI-H441 | 0.405
NCI-H460 | 0.212
NCI-H520 | 0.603
NCI-H522 | 0.619
NCI-H596 | 0.834
NCI-H647 | 0.43
NCI-H650 | 0.955
NCI-H661 | 0.536

Same assay, conditions: first compound 0.03162 µM

Cell Line | relative viability
201T | 0.706
A-427 | 0.771
BEN | 0.982
CAL-12T | 0.413
COR-L23 | 0.605
COR-L 105 | 0.463
ChaGo-K-1 | 0.92
EKVX | 0.367
EMC-BAC-2 | 0.803
EPLC-272H | 0.281
H3255 | 0.666
HARA | 0.525
HCC-15 | 0.346
HCC-44 | 1.04
HCC-78 | 0.873
HCC-366 | 0.388
HCC-827 | 0.567
HOP-62 | 0.369

Cell Line | relative viability
LC-2-ad | 0.985
LCLC-97TM1 | 0.173
LCLC-103H | 0.646
LK-2 | 0.749
LOU-NH91 | 0.79
LU99A | 0.527
LXF-289 | 0.668
NCI-H23 | 0.367
NCI-H322M | 0.507
NCI-H358 | 0.151
NCI-H441 | 0.475
NCI-H460 | 0.154
NCI-H520 | 0.744
NCI-H522 | 0.689
NCI-H596 | 0.845
NCI-H647 | 0.575
NCI-H650 | 1.04
NCI-H661 | 0.563

Same assay, conditions: first compound 0.1 µM

Cell Line | relative viability
201T | 0.747
A-427 | 0.724
BEN | 0.948
CAL-12T | 0.32
COR-L23 | 0.563
COR-L 105 | 0.413
ChaGo-K-1 | 0.876
EKVX | 0.347
EMC-BAC-2 | 0.914
EPLC-272H | 0.299
H3255 | 0.602
HARA | 0.958
HCC-15 | 0.38
HCC-44 | 1.03
HCC-78 | 0.723
HCC-366 | 0.367
HCC-827 | 0.53

Cell Line | relative viability
HOP-62 | 0.358
LCLC-97TM1 | 0.209
LCLC-103H | 0.662
LK-2 | 0.674
LOU-NH91 | 0.833
LU99A | 0.49
LXF-289 | 0.726
NCI-H23 | 0.329
NCI-H322M | 0.482
NCI-H358 | 0.131
NCI-H441 | 0.59
NCI-H460 | 0.211
NCI-H520 | 0.767
NCI-H522 | 0.799
NCI-H596 | 0.82
NCI-H647 | 0.435
NCI-H661 | 0.536

Same assay, conditions: first compound 0.3162 µM

Cell Line | relative viability
201T | 0.72
BEN | 1.15
CAL-12T | 0.393
COR-L23 | 0.525
COR-L 105 | 0.41
ChaGo-K-1 | 0.825
EKVX | 0.298
H3255 | 0.652
HARA | 0.976
HCC-44 | 1.15
HCC-78 | 0.706
HCC-827 | 0.508
HOP-62 | 0.407
LCLC-97TM1 | 0.173
LCLC-103H | 0.686
LK-2 | 0.805
LOU-NH91 | 0.763
LU99A | 0.511
LXF-289 | 0.57
NCI-H322M | 0.493
NCI-H358 | 0.112
NCI-H441 | 0.382
NCI-H460 | 0.165
NCI-H520 | 0.568
NCI-H522 | 0.703
NCI-H596 | 0.888
NCI-H647 | 0.436
NCI-H661 | 0.61

Same assay, conditions: first compound 1 µM

Cell Line | relative viability
201T | 0.754
A-427 | 0.78
BEN | 1.17
CAL-12T | 0.374
COR-L23 | 0.633
COR-L 105 | 0.43
ChaGo-K-1 | 0.915
EKVX | 0.374
EMC-BAC-2 | 0.893
EPLC-272H | 0.307
H3255 | 0.479
HARA | 0.564
HCC-44 | 1.04
HCC-78 | 0.909
HCC-366 | 0.322
HCC-827 | 0.552
HOP-62 | 0.392

Cell Line | relative viability
LC-2-ad | 0.892
LCLC-97TM1 | 0.196
LCLC-103H | 0.642
LK-2 | 0.728
LOU-NH91 | 0.794
LU99A | 0.522
LXF-289 | 0.693
NCI-H23 | 0.393
NCI-H322M | 0.554
NCI-H358 | 0.135
NCI-H441 | 0.446
NCI-H460 | 0.149
NCI-H520 | 0.668
NCI-H522 | 0.8
NCI-H596 | 0.819
NCI-H647 | 0.559
NCI-H661 | 0.549

Compound: C[C@@H](Oc1cc(-c2cnn(C3CCNCC3)c2)cnc1N)c1c(Cl)ccc(F)c1Cl [Crizotinib]
Test: relative viability (nuclei count vs DMSO), 5 days (fraction); higher = more cells survive
Conditions: 0.01 µM
Procedure, shortened: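 MetaXpress counted nuclei in 4× images of lung cancer cell lines that had been fixed, permeabilised and Hoechst-stained in one step. Before that, cells in 1536-well plates were kept overnight at 37 °C, pinned with five √10-spaced library-drug doses on vehicle-anchored plates, and cultured 5 days without medium change. Viability takes treated-well nuclei over vehicle-well nuclei and uses the median across plates. Plates were accepted only at control CV below 25% and at least one doubling.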

Cell Line | relative viability
201T | 0.95
A549 | 0.963
A-427 | 0.965
ABC-1 | 0.845
BEN | 0.867
CAL-12T | 0.917
COR-L23 | 1.01
COR-L 105 | 0.844
Calu-6 | 0.986
ChaGo-K-1 | 0.977
EBC-1 | 0.965
EKVX | 0.969
EMC-BAC-2 | 1.08
EPLC-272H | 0.883
H3255 | 0.963
HARA | 0.796
HCC-15 | 0.917
HCC-44 | 0.967
HCC-78 | 0.916
HCC-366 | 0.952
HCC-827 | 0.985
HOP-62 | 0.96

Cell Line | relative viability
IA-LM | 0.972
LC-2-ad | 0.921
LCLC-97TM1 | 0.902
LCLC-103H | 0.906
LK-2 | 0.972
LOU-NH91 | 0.945
LU99A | 0.894
LXF-289 | 0.967
NCI-H23 | 0.808
NCI-H322M | 0.778
NCI-H358 | 0.89
NCI-H441 | 0.99
NCI-H460 | 0.961
NCI-H520 | 0.895
NCI-H522 | 0.919
NCI-H596 | 1.02
NCI-H650 | 1.07
NCI-H661 | 0.933
NCI-H1299 | 0.976
NCI-H1563 | 0.887
NCI-H1623 | 0.891
NCI-H1703 | 0.794

Same assay, conditions: 0.03162 µM

Cell Line | relative viability
201T | 1
A549 | 1.03
A-427 | 1.03
ABC-1 | 0.885
BEN | 0.974
CAL-12T | 0.973
COR-L23 | 1.04
COR-L 105 | 0.938
Calu-6 | 1.03
EBC-1 | 1.05
EKVX | 0.941
EMC-BAC-2 | 0.96
EPLC-272H | 0.932
H3255 | 0.993
HCC-15 | 1.04
HCC-44 | 0.974
HCC-78 | 0.993
HCC-366 | 1.01
HCC-827 | 1.03
HOP-62 | 1.01
IA-LM | 0.959

Cell Line | relative viability
LC-2-ad | 1.02
LCLC-97TM1 | 1.1
LCLC-103H | 1.02
LK-2 | 0.87
LOU-NH91 | 0.905
LU99A | 1.03
LXF-289 | 1.03
NCI-H23 | 1.1
NCI-H358 | 0.963
NCI-H441 | 0.941
NCI-H460 | 0.999
NCI-H520 | 0.897
NCI-H522 | 0.954
NCI-H596 | 1.04
NCI-H647 | 1.01
NCI-H650 | 0.97
NCI-H661 | 0.95
NCI-H1299 | 1.02
NCI-H1563 | 0.995
NCI-H1623 | 1.01
NCI-H1703 | 1.08

Same assay, conditions: 0.1 µM

Cell Line | relative viability
201T | 0.95
A549 | 0.948
A-427 | 1.03
ABC-1 | 0.995
BEN | 0.886
CAL-12T | 0.974
COR-L23 | 0.963
COR-L 105 | 0.901
ChaGo-K-1 | 0.953
EBC-1 | 0.976
EKVX | 0.933
EMC-BAC-2 | 0.98
EPLC-272H | 0.937
H3255 | 0.991
HARA | 1.03
HCC-15 | 1.01
HCC-44 | 1.06
HCC-78 | 1.01
HCC-827 | 1.03
HOP-62 | 1.03
IA-LM | 1.03

Cell Line | relative viability
LC-2-ad | 1.02
LCLC-97TM1 | 1
LCLC-103H | 1.07
LK-2 | 0.943
LOU-NH91 | 1.09
LXF-289 | 1.08
NCI-H23 | 1.04
NCI-H322M | 1
NCI-H358 | 0.902
NCI-H441 | 0.947
NCI-H460 | 0.996
NCI-H520 | 0.894
NCI-H522 | 0.888
NCI-H596 | 1.09
NCI-H647 | 1.01
NCI-H650 | 1.13
NCI-H661 | 0.945
NCI-H1299 | 1.02
NCI-H1563 | 0.908
NCI-H1623 | 0.915
NCI-H1703 | 0.918

Same assay, conditions: 0.3162 µM

Cell Line | relative viability
201T | 1.03
A549 | 1.04
ABC-1 | 0.878
BEN | 0.807
CAL-12T | 0.837
COR-L23 | 0.978
COR-L 105 | 0.847
Calu-6 | 0.957
ChaGo-K-1 | 0.769
EBC-1 | 0.17
EKVX | 0.847
EPLC-272H | 0.778
H3255 | 0.911
HARA | 0.779
HCC-44 | 0.879
HCC-78 | 0.476
HCC-827 | 0.901
HOP-62 | 0.874
IA-LM | 0.872
LCLC-97TM1 | 0.727
LCLC-103H | 0.991
LK-2 | 1.03
LOU-NH91 | 0.949
LU99A | 0.795
LXF-289 | 0.844
